Marks after values point to notes of the source that are not given here.
What was measured:
ADC AVP0458-TCO-MMAE = assay: Triggered drug (MMAE) release from ADC in 50% mouse plasma, HPLC-SIM-MS; details: 24 h; 50% mouse plasma, 37° C.; mean ± SD (n = 3)
Experimental: In a 1.5 mL vial, the following was combined: 650 μL mouse plasma, 600 μL PBS, 20 μL ADC (1.62 μg/μL in PBS) and 7.5 μL d8-MMAE solution (0.167 μg/μL, internal standard). Next, aliquots of 20 μL were prepared to which 5.2 μL of a tetrazine solution (0.25 mM in 1:1 DMSO/H2O) was added and the solution was incubated at 37° C. At various times, 100 μL of cold MeCN was added to the aliquot and the mixture was vortexed, stored at 4° C. for 30 min. and centrifuged. 20 μL of supernatant was taken and combined with 100 μL of 1% formic acid (aq) solution. This sample was analysed with HPLC-SIM-MS to quantify the ratio of free MMAE and d8-MMAE, which is a measure of the release yield.

[1] = Cell proliferation assay (MTT); type: cell-based; details: human, 3 days incubation, mean ± SEM (n = 6), read-out: LS174T cell viability (%); for viability at 72 h, 0.01 μM: 0.01 μM activator; for viability at 72 h, 0.1 μM: 0.1 μM activator; for viability at 72 h, 1 μM: 1 μM activator
Experimental: The human colon carcinoma LS174T cell line was obtained from the American Type Culture Collection and cultured in RPMI-1640 medium supplemented with 2 mM glutamine and 10% heat inactivated fetal calf serum. Twenty-four hours prior to the experiment, the cells were plated in 96-well plates at a 5000 cells/well density. The cells were then incubated with serial dilutions (10 nM-1 μM; n=6) of activators 2.7, 2.8, 2.14, 2.16, 2.17, 2.18 and 2.19 in culture medium for 72h at 37° C. The % cell proliferation was assessed by an MTT assay, in comparison to cells incubated in culture medium without activator. No toxicity was observed when the LS174T cells were incubated with the tested activators (and possible metabolites formed in the presence of serum) for 3-days at a 0.01-1 μM activator concentration.

[2] = Triggered release of Construct-A from TCO trigger, HPLC-MS/PDA
Experimental: At the specified time point, the sample was analyzed by HPLC-MS/PDA, and the release yield was determined from the observed amounts of IEDDA adducts, elimination product, and/or released Construct. In case the release was not complete, the sample was incubated at 37° C. for additional time and analyzed once again.

Structure (SMILES) | MMAE release from ADC AVP0458-TCO-MMAE, Release (%) (ADC AVP0458-TCO-MMAE) | viability at 72 h, 0.01 μM [1] [%] | viability at 72 h, 0.1 μM [1] [%] | viability at 72 h, 1 μM [1] [%] | also measured
Nc1cccnc1-c1nnc(-c2ncccc2N)nn1 [2.1, 2,2′-(1,2,4,5-Tetrazine-3,6-diyl)bis(pyridin-3-amine)] | 32.1 ± 0.7^b % | – | – | – | –
Nc1cnccc1-c1nnc(-c2ccncc2N)nn1 [2.3, 4,4′-(1,2,4,5-Tetrazine-3,6-diyl)bis(pyridin-3-amine)] | 88.5 ± 0.1% | – | – | – | –
c1cc(-c2nnc(-c3ccncc3)nn2)ccn1 [2.19, 3,6-bis(4-pyridinyl)-tetrazine, reference compound] | – | 87 ± 2.6 | 88.7 ± 2.5 | 91.3 ± 3 | –
CC(=O)Nc1cccnc1-c1nnc(-c2ncccc2NC(C)=O)nn1 [2.2, N,N′-(2,2′-(1,2,4,5-Tetrazine-3,6-diyl)bis(pyridine-3,2-diyl))diacetamide] | 79.3 ± 0.4% | – | – | – | Construct release % ([2]; TCO 3.11, doxorubicin, 18 h, 37° C.): 18 h: 74%; Construct release % ([2]; TCO 3.11, doxorubicin, 42 h, 37° C.): 42 h: 81%; Construct release % ([2]; TCO 3.11, released construct doxorubicin, 5 min): 5 min: 4%; Construct release % ([2]; TCO 3.23, released construct dimethylamine, 5 min): 5 min: 100%; Construct release % ([2]; TCO 3.32, released construct dimethylamine, 5 min): 5 min: 98%
CC(=O)Nc1cnccc1-c1nnc(-c2ccncc2NC(C)=O)nn1 [2.4, N,N′-(4,4′-(1,2,4,5-Tetrazine-3,6-diyl)bis(pyridine-4,3-diyl))diacetamide] | 96.0 ± 0.3% | – | – | – | –
Cc1nnc(C)nn1 [2.17, 3,6-bismethyl-tetrazine, reference compound] | – | 90.2 ± 4.5 | 87.9 ± 6.4 | 85.7 ± 7.4 | –
c1ccc(-c2nnc(-c3ccccn3)nn2)nc1 [2.18, 3,6-bis(2-pyridinyl)-tetrazine, reference compound] | – | 101 ± 3 | 101 ± 2.8 | 102 ± 3.6 | –
